Test results as given in US7576057B2, “Cyclic peptides” (Scynexis, Inc., priority 2006, dated 2009).

Tests used:
[1] = tested on: human T-lymphoblastoid cell line, CEM-SS; assay: Compound toxicity (MTS) in CEM-SS cells; format: cell-based
Description: Certain compounds of the present invention were also tested for antiretroviral activity against human immunodeficiency virus-1 (HIV) using infection of the human T-lymphoblastoid cell line, CEM-SS, with the HIV strain […] (Weislow et al., 1989, J. Natl. Cancer Inst. 81:577-586). In this MTS cytoprotection assay, each experiment included cell control wells (cells only), virus control wells (cells plus virus), drug toxicity wells (cells plus drug only), drug calorimetric control wells (drug only) as well as experimental wells (drug plus cells plus virus). Compounds were first dissolved in DMSO and tested using six half-log dilutions, starting with a high concentration of either 20 or 2 μM. HIV-1RF was added to each well in a volume of 50 μL, the amount of virus determined to give approximately 90% cell killing at 6 days post-infection. At assay termination, assay plates were stained with the soluble tetrazolium-based dye MTS (CellTiter 96 Reagent, Promega) to determine cell viability and quantify compound toxicity. MTS is metabolized by the mitochondria enzymes of metabolically active cells to yield a soluble formazan product, providing a quantitative analysis of cell viability and compound cytotoxicity. The assay was validated in parallel experiments using Zidovudine (3′-azido-3′-deoxythymidine or AZT) as a positive control. […]

[2] = tested on: human hepatoma cell line ET (lub ubi neo/ET); assay: Cytotoxicity (colorimetric cell number assay) in the ET line; settings: cytotoxicity versus antiviral activity
Description: The compounds were dissolved in DMSO at five half-log concentrations each, ranging from either 0.03 to 3 μM or 1 to 100 μM. Subconfluent cultures of the ET line were plated out into 96 well plates dedicated for the analysis of cell numbers (cytotoxicity) or antiviral activity and the next day the compounds were added to the appropriate wells. […] Compound EC50 and EC90 values were derived from HCV RNA levels assessed as HCV RNA replicon derived LUC activity. Cytotoxicity was expressed as IC50 and IC90, the concentration of compound that inhibited cell viability by 50% and 90%, respectively. Compound IC50 and IC90 values were calculated using a colorimetric assay as an indication of cell numbers and cytotoxicity. The activity of the LUC reporter is directly proportional to HCV RNA levels in the human cell line. The HCV-replicon assay was validated in parallel experiments using interferon-alpha-2b as a positive control. Cyclosporine was also tested by way of comparison.

SMILES	cytotoxicity at the concentrations that inhibit HIV [1]	safety margin (antiviral IC50 versus cytotoxicity EC50) [2]
C/C=C/C[C@@H](C)[C@@H](O)[C@H]1C(=O)N[C@@H](CC)C(=O)N(C)CC(=O)N(C)[C@@H](CC(C)C)C(=O)N[C@@H](C(C)C)C(=O)N(C)[C@@H](CC(C)C)C(=O)N[C@@H](C)C(=O)N[C@H](CCCCN(C)C)C(=O)N(C)[C@@H](CC(C)C)C(=O)N(C)[C@@H](CC(C)C)C(=O)N(C)[C@@H](C(C)C)C(=O)N1C [Compound 1, [(N,N-ε-Dimethyl)-D-lysyl]^8cyclosporine]	not cytotoxic	exhibited a safety margin
C/C=C/C[C@@H](C)[C@@H](O)[C@H]1C(=O)N[C@@H](CC)C(=O)N(C)CC(=O)N(C)[C@@H](CC(C)C)C(=O)N[C@@H](C(C)C)C(=O)N(C)[C@@H](CC(C)C)C(=O)N[C@@H](C)C(=O)N[C@H](CCCCN)C(=O)N(C)[C@@H](CC(C)C)C(=O)N(C)[C@@H](CC(C)C)C(=O)N(C)[C@@H](C(C)C)C(=O)N1C [Compound 2, [D-Lysyl]^8cyclosporine]	–	exhibited a safety margin
